Where a name gives a salt, the structure may show the parent alone.
Columns and labels:
[1] = test system: LTB4 production in rat mast cell like cell line RBL-2H3; assay: Calcium ionophore-induced LTB4 production system using RBL-2H3; format: cell-based; conditions: 1 h, RBL-2H3, A23187 5 μM, one hour
Description: (§1) For the evaluation by LTB4 and Cys-LTs production inhibiting activity, the calcium ionophore-induced LTB4 and Cys-LTs production system using the rat mast cell like cell line RBL-2H3 with reference to the method of Ishiwara et al. (see Ishiwara M. et al., J Pharmacol Exp Ther 307: 583, 2003) was used. That is, rat mast cell like cell line RBL-2H3 cells were suspended in Dulbecco's modified Eagle's medium (Nacalai Tesque) containing 10% bovine fetal serum (BioWhittaker) and 10 μg/ml gentamycin (Invitrogen). The infiltrating cell suspension 200 μl containing 1×10^5 cells per well was inoculated to 96-well culture plate and cultured over night under conditions of 5% CO2 and 37° C. The culture supernatant was removed, then the test compound solution or solvent 50 μl was added. After 30 minutes preculture, calcium ionophore (A23187) was added to a final concentration of 5 μM to induce leukotriene production.
(§2) One hour after calcium ionophore stimulus, the culture supernatant was recovered and the amounts of LTB4 and Cys-LTs in the supernatant were measured using an EIA kit (made by Amersham). Based on the measurement values, the test compound concentrations suppressing 50% of the mediator production at the time of non-addition of a compound (IC50 value) were calculated.

[2] = test system: TPA-induced mouse dermatitis model; assay: TPA-induced mouse dermatitis model (ear thickness); format: in vivo; conditions: 50 mg/kg orally 30 minutes before TPA, 6 hours after TPA, C57BL/6 mice
Description: Phorbol ester (TPA) was applied to the ear to elicite acute inflammation having ear edema as a main symptom. In the present test model, it is known that arachidonic acid metabolites, constituting various lipid mediators, are involved in inflammation. By this Experiment, it is possible to evaluate the anti-inflammatory action in vivo of anti-inflammatory drugs acting on the arachidonic acid cascade.
The Experiment was performed with reference to the method of Chang et al. (see Chang J., Eur J Pharmacol 142: 197, 1987). That is, the ear of female C57BL/6 mice (Charles River Japan) were painted with 20 μl of TPA in an acetone solution (concentration 50 μg/ml) to induce dermatitis at the ear. The ear thicknesses before application of TPA and 6 hours after application of TPA were measured using a dial gauge and the increase in ear thickness caused by inflammation was calculated. The test compound or the 0.5% hydroxypropyl cellulose solution as vehicle was administered orally to the mice 30 minutes before application of TPA. Note that the number of mice used in the test was made six per group.
Based on the measurement value, the action of each test compound in suppressing the increase in ear thickness due to application of TPA was evaluated.

[3] = biological target: T1, cPLA2 crudely purified from the cytoplasm fraction of U937 (Homo sapiens, UniProt P47712); assay: Measurement of cPLA2 inhibitory activity (release of [14C]-arachidonic acid from phosphatidyl choline liposome); format: biochemical; conditions: cPLA2 from U937 cytoplasm fraction, [14C]arachidonyl-phosphatidyl choline liposome, 37° C., 60 minutes; read-out: cPLA2 inhibitory activity, 50% inhibiting concentration IC50
T1 construct: cPLA2 crudely purified from the cytoplasm fraction of U937; endogenous in cells; host or cells: U937 cells (cytoplasm fraction, crude purification)
T1 sequence (P47712 1-749): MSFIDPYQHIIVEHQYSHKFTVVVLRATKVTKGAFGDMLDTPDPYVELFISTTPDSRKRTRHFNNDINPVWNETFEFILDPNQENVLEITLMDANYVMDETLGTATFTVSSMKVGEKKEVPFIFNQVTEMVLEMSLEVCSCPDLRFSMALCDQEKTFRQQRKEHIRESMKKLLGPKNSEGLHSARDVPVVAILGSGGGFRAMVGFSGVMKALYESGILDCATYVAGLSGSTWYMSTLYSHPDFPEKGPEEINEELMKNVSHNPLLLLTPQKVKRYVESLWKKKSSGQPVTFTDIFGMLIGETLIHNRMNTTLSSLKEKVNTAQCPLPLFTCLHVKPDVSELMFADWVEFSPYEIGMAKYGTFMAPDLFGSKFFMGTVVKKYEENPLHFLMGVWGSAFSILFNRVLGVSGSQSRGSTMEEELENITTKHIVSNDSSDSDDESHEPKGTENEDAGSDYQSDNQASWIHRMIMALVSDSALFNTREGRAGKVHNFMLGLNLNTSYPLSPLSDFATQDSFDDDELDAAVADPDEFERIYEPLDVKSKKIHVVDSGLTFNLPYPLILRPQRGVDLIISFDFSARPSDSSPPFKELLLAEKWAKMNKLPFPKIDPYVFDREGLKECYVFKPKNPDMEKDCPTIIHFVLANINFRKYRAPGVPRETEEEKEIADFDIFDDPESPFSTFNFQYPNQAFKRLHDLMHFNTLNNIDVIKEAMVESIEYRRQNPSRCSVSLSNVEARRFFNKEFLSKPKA
Method in brief: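 The read-out is radioactivity from extracted [14C]-arachidonic acid, freed over 60 min at 37° C from liposomes of 14C-arachidonyl phosphatidylcholine (10 μM PC in the added solution). Buffer was 50 mM HEPES pH 7.5 with Ca2+, DTT, NaCl and BSA. IC50 was derived from inhibition relative to enzyme control minus no-enzyme control.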

[4] = test system: PGD2 production in rat mast cell like cell line RBL-2H3; assay: Antigen-induced PGD2 production system using RBL-2H3 sensitized by DNP specific IgE; format: cell-based; conditions: 0.5 h, RBL-2H3, anti-DNP-IgE sensitized, antigen 10 μg/ml, 30 minutes
Description: To evaluate the PGD2 production inhibiting activity, the antigen-induced PGD2 production system using rat mast cell like cell line RBL-2H3 sensitized by a dinitrophenol (DNP) specific IgE with reference to the method of Yamashita et al. (see Yamashita, M. et al., Br J Pharmacol 129: 367, 2000) was used. That is, rat mast cell like cell line RBL-2H3 cells were suspended in a Dulbecco's modified Eagle's medium (Nacalai Tesque) containing 10% bovine fetal serum (BioWhittaker) and 10 μg/ml gentamycin (Invitrogen). The infiltrating cell suspension 200 μl containing 1×10^5 cells per well was inoculated to 96-well culture plate and cultured over night under conditions of 5% CO2 and 37° C. The culture supernatant was removed, then the suspension was cultured for 2 hours in the presence of an anti-DNP-IgE antibody (1 μg/ml) for 2 hours to sensitize it. After the sensitization, the supernatant was removed and the test compound solution or solvent was added. The resultant product was precultured for 30 minutes, then 10 μg/ml of antigen (DNP-human serum albumin conjugate) was added to elicite PGD2 production.
30 minutes after antigen stimulus, the culture supernatant was recovered and the amount of PGD2 in the supernatant was measured using an EIA kit (made by Cayman). Based on the measurement value, the test compound concentration (IC50 value) suppressing the amount of PGD2 production at the time of nonaddition of the compound by 50% was calculated.

[5] = test system: Cys-LTs production in rat mast cell like cell line RBL-2H3; assay: Calcium ionophore-induced Cys-LTs production system using RBL-2H3; format: cell-based; conditions: 1 h, RBL-2H3, A23187 5 μM, one hour
Description: as §1, §2

IC50 [1]: 630 nM | IC50 [3]: 141 nM | IC50 [5]: 1380 nM
Compound: O=C(O)CCc1ccc2c(c1)c(CCc1ccccc1)cn2-c1ccc(OC(F)(F)F)cc1 [Example 193, 3-{3-(2-phenylethyl)-1-[4-(trifluoromethoxy)phenyl]-1H-indol-5-yl}propanoic acid 2-amino-2-(hydroxymethyl)propane-1,3-diol salt (1:1)]
Suppression rate of increase in ear thickness [2]: 19.4% | IC50 [4]: 820 nM
